Patent US9593305B2, “Differentiation of pluripotent stem cells” (Janssen Biotech, Inc., priority 2008, dated 2017)

Test system: H1 human embryonic stem cells
Assay: Analogue screening in combination with only GDF-8, SOX17 (Example 21, Tables 18 and 19)
Format: cell-based
Parameters: Sox17 Expression: % of positive control / Cell Number: % of positive control: tested at 2.5 µM
Details: for Cell Number: Average Total Cell Number / Sox17 Expression: Average Total Intensity / Cell Number: % of positive control / Sox17 Expression: % of positive control: compound in combination with GDF8; for Cell Number: Average Total Cell Number / Sox17 Expression: Average Total Intensity: four assay plates; for Cell Number: % of positive control / Sox17 Expression: % of positive control: relative to Activin A/Wnt3a of the same plate; for Sox17 Expression, % of positive control: 2.5 μM compound with 200 ng/ml GDF-8, four days, Table 19 hits
Procedure, shortened: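 H1 human ES cells treated four days with 200 ng/ml GDF-8 plus 2.5 μM compound (day 1, 0.5% FCS), GDF-8 alone in 2% FCS on day 3; triplicates. Fixed cells immunostained for SOX17 with Hoechst counterstain, imaged at 15 fields/well; total SOX17 intensity normalized to activin A/Wnt3a positive control.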

Structure (SMILES) | Cell Number: Average Total Cell Number | Sox17 Expression: Average Total Intensity | Cell Number: % of positive control [%] | Sox17 Expression: % of positive control [%] | Sox17 Expression, % of positive control
O=C1CCN2CCN(CC2)Cc2cccc(c2)Nc2ncnc(n2)-c2ccnc(c2)NCCCN1 [Compound 13, 1,8,10,12,17,19,23,27,33-Nonaazapentacyclo[25.2.2.1˜3,7˜0.1˜9.13˜1˜14.18˜]tetratriaconta-3(34), 4,6,9(33), 10,12,14(32), 15,17-nonaen-24-one] | 3123 | 2.44E+07 | 20.8 | 7.1 | –
CCN1CC(=O)NCCCc2cc(ccn2)-c2ncnc(n2)Nc2cc(Cl)cc(c2)C1 [Compound 14, 10-Chloro-14-ethyl-3,5,7,14,17,22,27-heptaazatetracyclo[19.3.1.1˜2,6˜1˜8,12˜]heptacosa-1(25), 2(27), 3,5,8(26), 9,11,21,23-nonaen-16-one] | 274 | 1.56E+05 | 2.0 | 0.1 | –
CCN1CC(=O)NCCCc2cccc(c2)-c2ncnc(n2)Nc2cccc(c2)C1 [Compound 15, 14-Ethyl-3,5,7,14,17,27-hexaazatetracyclo[19.3.1.1˜2,6˜1-8.12˜]heptacosa-1(25), 2(27), 3,5,8(26), 9,11,21,23-nonaen-16-one] | 4383 | 3.57E+07 | 28.7 | 10.6 | –
O=C1NCCCc2cncc(c2)-c2ncnc(n2)Nc2cccc(c2)CN2CCCC1C2 (stereo not shown) [Compound 17, 3,5,7,14,20,26,31-Heptaazapentacyclo[22.3.1.1-2,6˜1˜8,12˜1˜14,18˜]hentriaconta-1(28), 2(31), 3,5,8(30), 9,11,24,26-nonaen-19-one] | – | – | – | – | 23.6 % of positive control
O=C1NCCCc2cncc(c2)-c2ncnc(n2)Nc2cccc(c2)CN2CCC[C@@H]12 [Compound 18, (18S)-3,5,7,14,20,26,30-Heptaazapentacyclo[22.3.1.1˜2,6˜1˜8,12˜0.0˜14,18˜]triaconta-1(28), 2(30), 3,5,8(29), 9,11,24,26-nonaen-19-one] | 1921 | 2.94E+07 | 13.8 | 9.5 | –
CN1CCC(=O)NCCCc2cncc(c2)-c2ncnc(n2)Nc2cccc(c2)C1 [Compound 19, 14-Methyl-3,5,7,14,18,24,28-heptaazatetracyclo[20.3.1.1˜2,6˜0.1˜8,12˜]octacosa-1(26), 2(28), 3,5,8(27), 9,11,22,24-nonaen-17-one] | 12569 | 2.40E+08 | 83.8 | 69.5 | 69.5 % of positive control
CN1CCCC(=O)NCCCc2cncc(c2)-c2ncnc(n2)Nc2cccc(c2)C1 [Compound 20, 14-Methyl-3,5,7,14,19,25,29-heptaazatetracyclo[21.3.1.1˜2,6˜0.1˜8,12˜]nonacosa-1(27), 2(29), 3,5,8(28), 9,11,23,25-nonaen-18-one] | 2793 | 6.77E+06 | 17.6 | 1.9 | –
CN1CCC(=O)NCCCNc2cccc(c2)-c2ncnc(n2)Nc2cccc(c2)C1 [Compound 21, 14-Methyl-3,5,7,14,18,22,29-heptaazatetracyclo[21.3.1.1˜2,6˜0.1˜8,12˜]nonacosa-1(27), 2(29), 3,5,8(28), 9,11,23,25-nonaen-17-one] | 371 | 2.36E+06 | 2.3 | 0.7 | –
O=C1NCCCc2cncc(c2)-c2ncnc(n2)Nc2cccc(c2)CN2CCC1CC2 [Compound 22, 1,8,10,12,16,22,30-Heptaazapentacyclo[22.2.2.1-3,7˜0.1˜9,13˜1-14,18˜]hentriaconta-3(31), 4,6,9(30), 10,12,14(29), 15,17-nonaen-23-one] | 6727 | 1.06E+08 | 42.4 | 29.8 | 27.4 % of positive control
O=C1CCN2CCN(CC2)Cc2cccc(c2)Nc2ncnc(n2)-c2cncc(c2)CCCN1 [Compound 23, 1,8,10,12,16,22,26,32-Octaazapentacyclo[24.2.2.1-3,7˜0.1˜9,13˜0.1˜14,18˜]tritriaconta-3(33), 4,6,9(32), 10,12,14(31), 15,17-nonaen-23-one] | 8758 | 1.16E+08 | 58.4 | 33.7 | 29.8 % of positive control
CCN1CC(=O)NCCCc2cc(ccc2F)-c2ncnc(n2)Nc2cc(Cl)cc(c2)C1 [Compound 25, 10-Chloro-14-ethyl-22-fluoro-3,5,7,14,17,27-hexaazatetracyclo[19.3.1.1˜2,6˜0.1˜8,12˜]heptacosa-1(25), 2(27), 3,5,8(26), 9,11,21,23-nonaen-16-one] | 3879 | 1.76E+07 | 24.4 | 5.0 | –
O=C1CCN2CCN(CC2)Cc2cc(Cl)cc(c2)Nc2ncnc(n2)-c2cncc(c2)CCCN1 [Compound 34, 5-Chloro-1,8,10,12,16,22,26,32-octaazapentacyclo[24.2.2.1˜3.7˜0.1˜9,13˜0.1˜14.18˜]tritriaconta-3(33), 4,6,9(32), 10,12,14(31), 15,17-nonaen-23-one] | – | – | – | – | 68.0 % of positive control
CCN1CC(=O)NCCCc2cncc(c2)-c2ncnc(n2)Nc2cc(Cl)cc(c2)C1 [Compound 35, 10-Chloro-14-ethyl-3,5,7,14,17,23,27-heptaazatetracyclo[19.3.1.1˜2,6˜0.1˜8,12]Theptacosa-1(25), 2(27), 3,5,8(26), 9,11,21,23-nonaen-16-one] | 7746 | 1.35E+08 | 48.8 | 38.0 | 33.7 % of positive control
O=C1NCCCc2cncc(c2)-c2ncnc(n2)Nc2cc(Cl)cc(c2)CN2CCCC1C2 (stereo not shown) [Compound 37, 10-Chloro-3,5,7,14,20,26,31-heptaazapentacyclo[22.3.1.1˜2,6˜0.1˜8,12˜0.1˜14,18˜]hentriaconta-1(28), 2(31), 3,5,8(30), 9,11,24,26-nonaen-19-one] | 4187 | 3.11E+07 | 26.4 | 8.8 | –
C=CCN1CC(=O)NCCCc2cncc(c2)-c2ncnc(n2)Nc2cccc(c2)C1 [Compound 40, 14-Prop-2-en-1-yl-3,5,7,14,17,23,27-heptaazatetracyclo[19.3.1.1˜2.6˜0.1˜8,12˜]heptacosa-1(25), 2(27), 3,5,8(26), 9,11,21,23-nonaen-16-one] | – | – | – | – | 52.2 % of positive control
